Data set [1] deals with DOI ((±)-2,5-dimethoxy-4-iodoamphetamine, a serotonin agonist) induced head twitches. Conditions: rat, oral doses of 3 and 10 mg/kg; cited from earlier work.
Data set [2] in a line: Laser light scattering particle size analysis (Malvern Mastersizer 2000). The format is physicochemical. Conditions: FIG. 4 / FIG. 5. An excerpt: The small quantity of water, its application using appropriate water atomization and/or water application rate are important reasons for the improved properties of pimavanserin. […] The actual amount of water to be sprayed at the granulation of pimavanserin may vary from batch to batch (depending on surrounding factors such as humidity, temperature, exact properties of the API batch, etc) but is still consider to be a small amount, e.g. 3-10% w/w based on the dry ingredients. The amount of water and the granulation process disclosed herein is controlled by controlling the impeller energy to achieve the targeted impeller speed. The appropriate impeller speed ensures sufficient mixing and controls the growth of granules. The specific small amount of water needed for each batch is controlled by the power consumption (amperage) of the granulator, i.e., if the amperage is […], additional amounts of water could be sprayed to the granulate in order to obtain pimavanserin having the properties desired in order to pharmaceutically manufacture capsules comprising 5-34 mg pimavanserin. […] The properties are achieved via a manufacturing process that includes granulation, using a suitable granulator, e.g. a high shear granulator, simultaneously spraying the adequate amount of water while mixing, followed by screening, and blending appropriate quantities of excipients. […]

The nature of data set [3]: Carr's Index (Carr's Compressibility Index), USP <616>/<1174>. The format is physicochemical. On the procedure:
(§1) Can's Index compares the difference between the bulk density and tapped density of a substance to determine its compressibility. The bulk density and the Carr's Index may be determined in accordance with USP<616> (method for performing Bulk and Tapped Densities, method 1) and USP<1174> (definition of powder flow) respectively.
Table 1 visualizes that filling of a capsule, in particular a capsule of size 3 or 4 (capsule volumes of 0.30 and 0.21 ml respectively, approximately […] and 85 mg respectively at a bulk density of 0.5 g/ml). As evident from Table 1, native pimavanserin (API) would be challenging for a size 3 capsule and not possible for a capsule of size 4 without improving the bulk density (as comparison 85 mg of pimavanserin granulation would require about 0.17 ml compared to 0.29 nil for the native API) and flowability (Carr index is frequently used in pharmaceutical manufacturing as an indication of the flowability of a powder, e.g. 2016 U.S. Pharmacopoeia-National Formulary [USP 35 NF 30]).

The nature of data set [4]: Bulk density according to USP <616>, method 1. The format is physicochemical.
Excerpt: as §1
The bulk density of the blended composition is >0.4 g/ml, such as 0.4-0.6 g/ml, such as about 0.5 g/ml determined according to USP <616>, method 1. In some embodiments the bulk density of the composition is >0.4 g/ml, such as about 0.5 g/ml, such as 0.51 g/ml, such as 0.508 g/ml.
The bulk density of pimavanserin granulation is >0.4 g/ml, such as 0.4-0.6 g/ml, such as about 0.5 g/ml, determined according to USP <616>, method 1. In some embodiments the bulk density of the pimavanserin granulation is >0.4 g/ml, such as about 0.5 g/ml, such as 0.51 g/ml, such as 0.508 g/ml.

Consider `CC(C)COc1ccc(CNC(=O)N(Cc2ccc(F)cc2)C2CCN(C)CC2)cc1` [Pimavanserin, N-(1-methylpiperidin-4-yl)-N-(4-fluorophenylmethyl)-N′-(4-(2-methylpropyloxy)phenylmethyl)carbamide], for which the “activity against DOI induced head twitches” value in data set [1] is on record as “effective”.

Consider pimavanserin tartrate [Native API], for which the “particle size distribution D90” value in data set [2] is recorded as “about 30 μm”. The “Carr's Index” value in data set [3] is 36 (n = 2). In addition, the “Bulk density according to USP <616>” value in data set [4] was 0.294 (n = 2) g/ml. Besides, the “volume required for 85 mg” value in data set [4] (85 mg of powder, from bulk density) amounted to 0.29 mL.
